According to patent US10329289B2, “6,7-dihydro-5H-pyrrolo[3,4-B]pyridin-5-one allosteric modulators of the M4 muscarinic acetylcholine receptor” (Merck Sharp & Dohme Corp., priority 2015, dated 2019):

Each compound was assayed against T1, human M4 muscarinic acetylcholine receptor (Homo sapiens, UniProt P08173) (assay: human FLIPR-based M4 PAM assay (Ca2+ mobilization, CHO-K1 cells with human M4 receptor and Gαqi5)). Conditions: acetylcholine at 20% of maximum response, read-out: M4 PAM IP.
T1 construct: expressed in transfected cells; host or cells: CHO-K1
T1 sequence (P08173 1-479): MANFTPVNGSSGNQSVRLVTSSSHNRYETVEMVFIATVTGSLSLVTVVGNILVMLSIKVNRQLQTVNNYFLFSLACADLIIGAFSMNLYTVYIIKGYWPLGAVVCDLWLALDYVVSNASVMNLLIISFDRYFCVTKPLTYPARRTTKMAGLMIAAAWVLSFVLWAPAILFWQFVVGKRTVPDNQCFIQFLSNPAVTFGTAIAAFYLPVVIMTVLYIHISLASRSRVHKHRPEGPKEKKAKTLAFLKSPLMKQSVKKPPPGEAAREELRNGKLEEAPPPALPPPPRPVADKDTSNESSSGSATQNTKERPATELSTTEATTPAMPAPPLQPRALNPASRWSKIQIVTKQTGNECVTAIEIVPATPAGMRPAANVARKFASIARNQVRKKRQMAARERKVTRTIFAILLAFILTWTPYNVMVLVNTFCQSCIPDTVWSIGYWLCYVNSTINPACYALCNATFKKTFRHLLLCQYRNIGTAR
Format: cell-based
Outline: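 Calcium-mobilization (FLIPR) readout in dye-loaded CHO-K1 cells co-expressing human M4 receptor and Gαqi5. Potentiation measured against acetylcholine at a concentration giving 20% of maximal response, with an optional 70% addition; the reported value is the curve inflection point from a 4-parameter logistic fit.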
With Cc1cc2c(nc1N1CC[C@@H](Oc3cccc(C#N)c3)[C@H](O)C1)CNC2=O [Example 43A, 3-(((3R,4R)-3-hydroxy-1-(3-methyl-5-oxo-6,7-dihydro-5H-pyrrolo[3,4-b]pyridin-2-yl)piperidin-4-yl)oxy)benzonitrile] the EC50 was 0.155 µM.
Cc1cc2c(nc1N1CC[C@@H](Oc3ccc4c(c3)COC4)[C@@H](F)C1)CN(C)C2=O [Example 46, 2-((3S,4R)-4-((1,3-dihydro-2-benzofuran-5-yl)oxy)-3-fluoropiperidin-1-yl)-3,6-dimethyl-6,7-dihydro-5H-pyrrolo[3,4-b]pyridin-5-one] was tested, and the EC50 was 0.032 µM.
Compound Cc1cc(N2CCC(OCC3(C)CC3)CC2)nc2c1C(=O)NC2 [Example 224, 4-methyl-2-(4-((1-methylcyclopropyl)methoxy)piperidin-1-yl)-6,7-dihydro-5H-pyrrolo[3,4-b]pyridin-5-one] has an EC50 of 3.52 µM.
Work on COc1ccc(OC2CCN(c3nc4c(cc3Cl)C(=O)NC4)CC2)cn1 [Example 327, 3-Chloro-2-(4-((6-methoxypyridin-3-yl)ox)piperidin-1-yl)-6,7-dihydro-5H-pyrrolo[3,4-b]pyridin-5-one] yielded an EC50 of 0.205 µM.
Work on Cc1cc2c(nc1N1CC[C@@H](Oc3cnc4c(c3)COC4)[C@@H](F)C1)CNC2=O [Example 65, 2-((3S,4R)-4-((5,7-dihydrofuro[3,4-b]pyridin-3-yl)oxy)-3-fluoropiperidin-1-yl)-3-methyl-6,7-dihydro-5H-pyrrolo[3,4-b]pyridin-5-one] yielded an EC50 of 0.075 µM.
In the case of Cc1cc2c(nc1N1CCC(Oc3ccc4[nH]ccc4c3)CC1)CNC2=O [Example 26, 2-(4-((1H-indol-5-yl)oxy)piperidin-1-yl)-3-methyl-6,7-dihydro-5H-pyrrolo[3,4-b]pyridin-5-one], the EC50 is reported as 0.028 µM.
With COc1ccc(OC2CCN(c3nc4c(c(C)c3C)C(=O)NC4)CC2)cn1 [Example 218, 2-(4-((6-Methoxypyridin-3-yl)oxy)piperidin-1-yl)-3,4-dimethyl-6,7-dihydro-5H-pyrrolo[3,4-b]pyridin-5-one] the EC50 was 0.038 µM.
COC(=O)CN1Cc2nc(N3CCC(OCC4(C)CC4)CC3)c(C)c(C)c2C1=O [Example 256, methyl 2-(3,4-dimethyl-2-(4-((1-methylcyclopropyl)methoxy)piperidin-1-yl)-5-oxo-5,7-dihydro-6H-pyrrolo[3,4-b]pyridin-6-yl)acetate] was tested, and the EC50 was 0.085 µM.
Work on Cc1cc2c(nc1N1CCC(Oc3ccc4c(c3)C[C@H](O)C4)CC1)CNC2=O (single isomer, unassigned) [Example 324B] yielded an EC50 of 0.028 µM.
Compound Cc1cc2c(nc1N1CCC(Oc3ccccc3)CC1)[C@H](CO)N(C)C2=O [Example 275, (R)-7-(hydroxymethyl)-3,6-dimethyl-2-(4-phenoxypiperidin-1-yl)-6,7-dihydro-5H-pyrrolo[3,4-b]pyridin-5-one] has an EC50 of 3.97 µM.
In the case of COc1ccc(OC2CCN(c3nc4c(c(C)c3C)C(=O)N(C)[C@H]4CO)CC2)cn1 [Example 344A, (R)-7-(hydroxymethyl)-2-(4-((6-methoxypyridin-3-yl)oxy)piperidin-1-yl)-3,4,6-trimethyl-6,7-dihydro-5H-pyrrolo[3,4-b]pyridin-5-one], the EC50 is reported as 0.76 µM.
Work on Cc1cc2c(nc1N1CCC(OCC(F)(F)F)CC1)CNC2=O [Example 172A, 3-methyl-2-(4-(2,2,2-trifluoroethoxy)piperidin-1-yl)-6,7-dihydro-5H-pyrrolo[3,4-b]pyridin-5-one] yielded an EC50 of 0.905 µM.
In the case of Cc1cncc(OC2CCN(c3nc4c(cc3C)C(=O)N(C)[C@@H]4CO)CC2)c1 [Example 343, (S)-7-(hydroxymethyl)-3,6-dimethyl-2-(4-((5-methylpyridin-3-yl)oxy)piperidin-1-yl)-6,7-dihydro-5H-pyrrolo[3,4-b]pyridin-5-one], the EC50 is reported as 0.055 µM.
Cc1cc2c(nc1N1CCC(Oc3ccc4c(c3)COC4)CC1)CN([C@H](C)CO)C2=O [Example 268C, (R)-2-(4-((1,3-dihydro-2-benzofuran-5-yl)oxy)piperidin-1-yl)-6-(1-hydroxypropan-2-yl)-3-methyl-6,7-dihydro-5H-pyrrolo[3,4-b]pyridin-5-one] was tested, and the EC50 was 0.053 µM.
Cc1cc2c(nc1N1CCC(OCC34CC(C3)C4)CC1)CNC2=O [Example 187, 2-(4-(bicyclo[1.1.1]pentan-1-ylmethoxy)piperidin-1-yl)-3-methyl-6,7-dihydro-5H-pyrrolo[3,4-b]pyridin-5-one] was tested, and the EC50 was 0.223 µM.
With Cc1cc2c(nc1N1CCC(OC3CCOCC3)CC1)CNC2=O [Example 42, 3-methyl-2-(4-((tetrahydro-2H-pyran-4-yl)oxy)piperidin-1-yl)-6,7-dihydro-5H-pyrrolo[3,4-b]pyridin-5-one] the EC50 was 1.73 µM.
In the case of C=Cc1c(C)c(N2CCC(Oc3ccc(OC)nc3)CC2)nc2c1C(=O)NC2 [Example 372, 2-(4-((6-Methoxypyridin-3-yl)oxy)piperidin-1-yl)-3-methyl-4-vinyl-6,7-dihydro-5H-pyrrolo[3,4-b]pyridin-5-one], the EC50 is reported as 0.634 µM.
CCOCCOC1CCN(c2nc3c(cc2C)C(=O)NC3)CC1 [Example 54, 2-(4-(2-ethoxyethoxy)piper-idin-1-yl)-3-methyl-6,7-dihydro-5H-pyrrolo[3,4-b]pyridin-5-one] was tested, and the EC50 was 8.76 µM.
With Cc1cc2c(nc1N1CCC(Oc3cccc(Cl)c3)CC1)CNC2=O [Example 74, 2-(4-(3-chlorophenoxy)piperidin-1-yl)-3-methyl-6,7-dihydro-5H-pyrrolo[3,4-b]pyridin-5-one] the EC50 was 0.046 µM.
With Cc1cc2c(nc1N1CCC(OCc3ncco3)CC1)CNC2=O [Example 183, 3-methyl-2-(4-(oxazol-2-ylmethoxy)piperidin-1-yl)-6,7-dihydro-5H-pyrrolo[3,4-b]pyridin-5-one] the EC50 was 4.78 µM.
Compound CCc1cc2c(nc1N1CCC(Oc3ccc4c(c3)COCC4)CC1)CN(CCO)C2=O [Example 267A, 3-ethyl-6-(2-hydroxyethyl)-2-(4-(isochroman-7-yloxy)piperidin-1-yl)-6,7-dihydro-5H-pyrrolo[3,4-b]pyridin-5-one] has an EC50 of 0.102 µM.
With CCN1Cc2nc(N3CC[C@@H](Oc4ccccc4)[C@@H](F)C3)c(C)cc2C1=O [Example 244, 6-ethyl-2-((3S,4R)-3-fluoro-4-phenoxypiperidin-1-yl)-3-methyl-6,7-dihydro-5H-pyrrolo[3,4-b]pyridin-5-one] the EC50 was 0.032 µM.
Work on Cc1cc2c(nc1N1CC[C@@H](Oc3ccc4c(c3)COC4)[C@H](F)C1)[C@@H](CO)N(C)C2=O [Example 280A, (S)-2-((3R,4R)-4-((1,3-dihydro-2-benzofuran-5-yl)oxy)-3-fluoropiperidin-1-yl)-7-(hydroxymethyl)-3,6-dimethyl-6,7-dihydro-5H-pyrrolo[3,4-b]pyridin-5-one] yielded an EC50 of 0.014 µM.
For Cc1cc2c(nc1N1CCC(Oc3ccc4c(c3)OC(F)(F)O4)CC1)CNC2=O [Example 208, 2-(4-((2,2-difluorobenzo[d][1,3]dioxol-5-yl)oxy)piperidin-1-yl)-3-methyl-6,7-dihydro-5H-pyrrolo[3,4-b]pyridin-5-one], the EC50 was 0.329 µM.
Cc1cc2c(nc1N1CCC(Oc3ccnc(CO)c3)CC1)CNC2=O [Example 152, 2-(4-((2-(hydroxymethyl)pyridin-4-yl)oxy)piperidin-1-yl)-3-methyl-6,7-dihydro-5H-pyrrolo[3,4-b]pyridin-5-one] gave an EC50 of 1.15 µM.
For Cc1c(N2CCC(Oc3ccc4c(c3)COC4)CC2)nc2c(c1CO)C(=O)NC2 [Example 303, 2-(4-((1,3-dihydro-2-benzofuran-5-yl)oxy)piperidin-1-yl)-4-(hydroxymethyl)-3-methyl-6,7-dihydro-5H-pyrrolo[3,4-b]pyridin-5-one], the EC50 was 0.302 µM.
